Assay [1] has as its system OPM-2 Luc cells. Nature of the assay: OPM-2 xenograft efficacy model. The assay is classed as in vivo. The settings on record: dosed orally to female athymic nude mice inoculated with OPM-2 Luc cells. How it is done: Example 1 was dosed orally to female athymic nude mice inoculated with OPM-2 Luc cells.
Assay [2] has as its system human multiple myeloma cell line, OPM-2. Description: Cell viability assay (OPM-2 10 FBS), CellTiter-Glo. The assay is classed as cell-based. The procedure, abridged: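 3000 cells/well, RPMI 1640 + 10% FBS; serial compound dilutions, 16 h, 37 °C/5% CO2.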
(In general: In ATP-based viability assays light output follows the ATP content of the culture.)

The subject of assay [3] is OPM-2 Luc cells. Nature of the assay: tumor PD model (OPM-2 Luc). The assay is classed as in vivo. To be noted: dosed orally to female athymic nude mice inoculated with OPM-2 Luc cells; compared with Reference Compound 1. How it is done:
Both compounds were dosed orally to female athymic nude mice inoculated with OPM-2 Luc cells.

Assay [4] concerns the target recombinant human Mcl-1 (residues 171-327) / Bim interaction (Homo sapiens (Human), UniProt Q07820). Description: biochemical. It counts as binding. The settings on record: 0.1 nM Mcl-1(171-327), 0.05 nM biotin-Bim (51-76); read-out: Mcl-1 HTRF IC50. Background: Time-resolved FRET reads energy transfer from a long-lived donor to a nearby acceptor.
Setting [5] is: read-out: OPM-2 10% FBS IC50 IP, OPM-2 cells, 10% FBS, 16 h incubation.

Seven molecules from US10821115B2, “Compounds that inhibit Mcl-1 protein” (priority 2017, dated 2020) can be followed below.

Like-named read-outs stand apart in the source and are kept apart here.

Chain of recombinant human Mcl-1 (residues 171-327) / Bim interaction (Q07820 171-327): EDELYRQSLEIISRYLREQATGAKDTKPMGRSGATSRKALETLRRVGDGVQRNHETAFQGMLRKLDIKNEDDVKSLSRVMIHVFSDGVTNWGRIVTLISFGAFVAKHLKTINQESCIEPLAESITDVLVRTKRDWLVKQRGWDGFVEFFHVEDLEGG

What is called IC50 is the midpoint of a concentration-inhibition curve. As for “(1 S,3′R,6′R,7′R,8′E,11′S,12′R)-6-chloro-7′-((9aS)-hexahydropyrazino[2,1-c][1,4]oxazin-8(1H)-ylmethyl)-7′-methoxy-12′-(2-methoxyethyl)-11′-methyl-3,4-dihydro-2H, 15′H-spiro[naphthalene-1,22′-[20]oxa[13]thia[1,14]diazatetracyclo[14.7.2.0-3,6˜.0˜19,24˜]pentacosa[8,16,18,24]tetraen]-15′-one 13′,13′-dioxide [Example 11]”, in the assay on OPM-2 Luc cells [1], the “in vivo efficacy in an OPM-2 xenograft efficacy model” value is given as “in vivo efficacy”. In addition, in assay [2] (setting [5]), the half-inhibitory concentration (IC50) stood at 51 nM.
As to `CO[C@]1(CN2CCN(C3COC3)CC2)/C=C/C[C@H](C)[C@@H](C)S(=O)(=O)NC(=O)c2ccc3c(c2)N(C[C@@H]2CC[C@H]21)C[C@@]1(CCCc2cc(Cl)ccc21)CO3` [Example 3, (1 S,3′R,6′R,7′R,8′E,11′S,12′R)-6-chloro-7′-methoxy-11′,12′-dimethyl-7′-((4-(3-oxetanyl)-1-piperazinyl)methyl)-3,4-dihydro-2H, 15′H-spiro[naphthalene-1,22′-[20]oxa[13]thia[1,14]diazatetracyclo[14.7.2.0-3,6˜.0˜19,24˜]pentacosa[8,16,18,24]tetraen]-15′-one 13′,13′-dioxide], the “in vivo efficacy relative to Reference Compound 1 in a tumor PD model” value in the assay with OPM-2 Luc cells [3] is recorded as “superior in vivo efficacy”. For the same molecule, the IC50 in assay [4] amounted to 0.094 nM; in assay [2] (setting [5]), 60 nM.
For the molecule `CCO[C@]1(CN2CCN3CCOC[C@@H]3C2)/C=C/C[C@H](C)[C@@H](C)S(=O)(=O)NC(=O)c2ccc3c(c2)N(C[C@@H]2CC[C@H]21)C[C@@]1(CCCc2cc(Cl)ccc21)CO3` [Example 1, (1 S,3′R,6′R,7′R,8′E, 11′S,12′R)-6-chloro-7′-ethoxy-7′-((9aS)-hexahydropyrazino[2,1-c][1,4]oxazin-8(1H)-ylmethyl)-11′,12′-dimethyl-3,4-dihydro-2H,15′H-spiro[naphthalene-1,22′-[20]oxa[13]thia[1,14]diazatetracyclo[14.7.2.0-3,6˜.0˜19,24˜]pentacosa[8,16,18,24]tetraen]-15′-one 13′,13′-dioxide], the “in vivo efficacy relative to Reference Compound 1 in a tumor PD model” value in the assay on OPM-2 Luc cells [3] is recorded as “superior in vivo efficacy”. Besides, the “in vivo efficacy in an OPM-2 xenograft efficacy model” value with OPM-2 Luc cells [1] is recorded as “in vivo efficacy”. Also, the IC50 in assay [4] was found to be 0.086 nM; in assay [2] (setting [5]), 85 nM.
Regarding `CO[C@]1(CN2CCN3CCCC[C@@H]3C2)/C=C/C[C@H](C)[C@@H](C)S(=O)(=O)NC(=O)c2ccc3c(c2)N(C[C@@H]2CC[C@H]21)C[C@@]1(CCCc2cc(Cl)ccc21)CO3` [Example 10, (1 S,3′R,6′R,7′R,8′E, 11′S,12′R)-6-CHLORO-7′-METHOXY-11′,12′-DIMETHYL-7′-((9AR)-OCTAHYDRO-2H-PYRIDO[1,2-A]PYRAZIN-2-YLMETHYL)-3,4-DIHYDRO-2H, 15′H-SPIRO [NAPHTHALENE-1,22′-[20]OXA[13]THIA[1,14]DIAZATETRACYCLO [14.7.2.0-3,6˜.0˜19,24˜]PENTACOSA[8,16,18,24]TETRAEN]-15′-ONE 13′,13′-DIOXIDE], the “in vivo efficacy in an OPM-2 xenograft efficacy model” value in the assay with OPM-2 Luc cells [1] is recorded as “in vivo efficacy”. Also, the IC50 in assay [2] (setting [5]) amounted to 75 nM.
As to “(1 S,3′R,6′R,7′S,8′E,11′S, 12′R)-6-chloro-7′-((9aS)-hexahydropyrazino[2,1-c][1,4]oxazin-8(1H)-ylmethyl)-7′-methoxy-11′,12′-dimethyl-3,4-dihydro-2H, 15′H-spiro[naphthalene-1,22′-[20]oxa[13]thia[1,14,25]triazatetracyclo[14.7.2.0-3,6˜.0˜19,24˜]pentacosa[8,16,18,24]tetraen]-15′-one 13′,13′-dioxide [Example 18]”, the “in vivo efficacy relative to Reference Compound 1 in a tumor PD model” value in the assay on OPM-2 Luc cells [3] is “superior in vivo efficacy”. The “in vivo efficacy in an OPM-2 xenograft efficacy model” value in the assay with OPM-2 Luc cells [1] was “in vivo efficacy”. The IC50 in assay [4] worked out at 0.06 nM; in assay [2] (setting [5]), 22 nM.
Consider `CO[C@]1(CN2CCN3CCOC[C@@H]3C2)/C=C/C[C@H](C)[C@@H](C)S(=O)(=O)NC(=O)c2ccc3c(c2)N(C[C@@H]2CC[C@H]21)C[C@@]1(CCCc2cc(Cl)ccc21)CO3` [Example 4, (1S,3′R,6′R,7′R,8′E,11′S,12′R)-6-CHLORO-7′-((9AS)-HEXAHYDROPYRAZINO[2,1-C][1,4]OXAZIN-8(1H)-YLMETHYL)-7′-METHOXY-11′,12′-DIMETHYL-3,4-DIHYDRO-2H, 15′H-SPIRO[NAPHTHALENE-1,22′-[20]OXA[13]THIA[1,14]DIAZATETRACYCLO[14.7.2.0-3,6˜.0˜19,24˜]PENT ACOSA[8,16,18,24]TETRAEN]-15′-ONE 13′,13′-DIOXIDE], for which the “in vivo efficacy relative to Reference Compound 1 in a tumor PD model” value in the assay on OPM-2 Luc cells [3] is recorded as “superior in vivo efficacy”. The “in vivo efficacy in an OPM-2 xenograft efficacy model” value with OPM-2 Luc cells [1] is “in vivo efficacy”. Further, the 50% inhibitory concentration (IC50) in assay [4] is 0.116 nM; in assay [2] (setting [5]), 94 nM.
For the molecule `CO[C@@]1(CN2CCN(C(C)(C)C)CC2)/C=C/C[C@H](C)[C@@H](C)S(=O)(=O)NC(=O)c2ccc3c(c2)N(C[C@@H]2CC[C@H]21)C[C@@]1(CCCc2cc(Cl)ccc21)CO3` [Example 335, (1S,3′R,6′R,7′S,8′E,11′S,12′R)-7′-((4-tert-butyl-1-piperazinyl)methyl)-6-chloro-7′-methoxy-11′,12′-dimethyl-3,4-dihydro-2H,15′H-spiro[naphthalene-1,22′-[20]oxa[13]thia[1,14]diazatetracyclo [14.7.2.0~3,6~.0~19,24~]pentacosa[8,16,18,24]tetraen]-15′-one 13′,13′-dioxide], the IC50 in assay [4] was found to be 0.148 nM; in assay [2] (Homo sapiens, OPM-2, 16 h, read-out: OPM-2 10% FBS IC50 IP, OPM-2 cells, 10% FBS, 16 h incubation), 133 nM.
